# Laboratory results as given in patent US11639352B2, “Benzothiazole compounds for the treatment of autoimmune diseases” (Hoffmann-La Roche Inc., priority 2018, dated 2023).
# pIC50: −log10 of the molar value.
# Biological target: T1, human TLR7 (Homo sapiens, UniProt Q9NYK1)
# T1 sequence (Q9NYK1 27-1049): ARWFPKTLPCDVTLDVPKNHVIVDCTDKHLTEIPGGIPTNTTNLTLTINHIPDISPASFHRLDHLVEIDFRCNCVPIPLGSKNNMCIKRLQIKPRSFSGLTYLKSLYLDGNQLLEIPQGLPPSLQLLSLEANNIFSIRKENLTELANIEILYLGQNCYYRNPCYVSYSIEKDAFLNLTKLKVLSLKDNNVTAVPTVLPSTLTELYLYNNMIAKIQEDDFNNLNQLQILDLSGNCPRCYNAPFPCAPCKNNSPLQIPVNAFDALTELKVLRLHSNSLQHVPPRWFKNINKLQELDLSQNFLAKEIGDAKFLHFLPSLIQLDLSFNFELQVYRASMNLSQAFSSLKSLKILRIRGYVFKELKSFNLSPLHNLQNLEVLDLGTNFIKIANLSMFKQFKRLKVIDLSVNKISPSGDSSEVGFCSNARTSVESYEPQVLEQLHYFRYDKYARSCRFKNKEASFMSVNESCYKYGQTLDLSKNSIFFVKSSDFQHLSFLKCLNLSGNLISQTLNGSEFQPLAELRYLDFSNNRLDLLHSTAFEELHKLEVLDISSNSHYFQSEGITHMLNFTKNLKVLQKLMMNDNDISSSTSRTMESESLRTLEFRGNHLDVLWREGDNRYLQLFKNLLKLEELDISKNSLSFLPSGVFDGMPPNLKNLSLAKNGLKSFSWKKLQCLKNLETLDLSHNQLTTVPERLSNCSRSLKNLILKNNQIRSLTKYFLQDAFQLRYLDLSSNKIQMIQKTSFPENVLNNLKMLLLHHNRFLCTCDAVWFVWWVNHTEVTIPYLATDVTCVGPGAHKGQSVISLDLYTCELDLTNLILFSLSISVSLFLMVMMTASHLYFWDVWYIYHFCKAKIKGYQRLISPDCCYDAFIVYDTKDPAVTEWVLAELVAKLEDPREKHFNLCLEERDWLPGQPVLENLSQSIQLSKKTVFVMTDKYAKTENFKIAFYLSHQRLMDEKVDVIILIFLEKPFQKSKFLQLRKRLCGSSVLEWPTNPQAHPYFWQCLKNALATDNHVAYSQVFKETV
# Test: HEK293-Blue-hTLR-7 cells assay (SEAP reporter, R848 stimulation)
# Assay type: cell-based
# Details: HEK293-Blue-hTLR7 cells, R848 ligand, 20 hrs incubation, antagonist
# Method: The following tests were carried out in order to determine the activity of the compounds of formula (I) in HEK293-Blue-hTLR-7/8/9 cells assay.
# HEK293-Blue-hTLR-7 Cells Assay:
# A stable HEK293-Blue-hTLR-7 cell line was purchased from InvivoGen (Cat. #: hkb-htlr7, San Diego, Calif., USA). These cells were originally designed for studying the stimulation of human TLR7 by monitoring the activation of NF-κB. A SEAP (secreted embryonic alkaline phosphatase) reporter gene was placed under the control of the IFN-β minimal promoter fused to five NF-κB and AP-1-binding sites. The SEAP was induced by activating NF-κB and AP-1 via stimulating HEK-Blue hTLR7 cells with TLR7 ligands. Therefore the reporter expression was declined by TLR7 antagonist under the stimulation of a ligand, such as R848 (Resiquimod), for incubation of 20 hrs. The cell culture supernatant SEAP reporter activity was determined using QUANTI-Blue™ kit (Cat. #: rep-qb1, Invivogen, San Diego, Calif., USA) at a wavelength of 640 nm, a detection medium that turns purple or blue in the presence of alkaline phosphatase.
# HEK293-Blue-hTLR7 cells were incubated at a density of 250,000˜450,000 cells/mL in a volume of 170 μL in a 96-well plate in Dulbecco's Modified Eagle's medium (DMEM) containing 4.5 g/L glucose, 50 U/mL penicillin, […], […], 2 mM L-glutamine, 10% (v/v) heat-inactivated fetal bovine serum with addition of 20 μL test compound in a serial dilution in the presence of final DMSO at 1% and 10 μL of 20 uM R848 in above DMEM, perform incubation under 37° C. in a CO2 incubator for 20 hrs. Then 20 μL of the supernatant from each well was incubated with 180 μL Quanti-blue substrate solution at 37° C. for 2 hrs and the absorbance was read at 620˜655 nm using a spectrophotometer. The signalling pathway that TLR7 activation leads to downstream NF-κB activation has been widely accepted, and therefore similar reporter assay was modified for evaluating TLR7 antagonist.
row,SMILES,pIC50
1,"C[C@@H]1CN(c2ccc(C#N)c3ncsc23)C[C@H](CN2CCC3(CCCNC3)C2)O1 (stereo partly drawn) [Example 1, 7-[(2S,6R)-2-(2,9-diazaspiro[4.5]decan-2-ylmethyl)-6-methyl-morpholin-4-yl]-1,3-benzothiazole-4-carbonitrile]",7.96
2,"C[C@@H]1CN(c2ccc(C#N)c3ncsc23)C[C@H](CN2CCC(N)CC2)O1 [Example 2, 7-[(2S,6R)-2-[(4-amino-1-piperidyl)methyl]-6-methyl-morpholin-4-yl]-1,3-benzothiazole-4-carbonitrile]",7.59
3,"C[C@@H]1CN(c2ccc(C#N)c3ncsc23)C[C@H](CN2CCC3(CCCNC3)CC2)O1 [Example 3, 7-[(2S,6R)-2-(2,9-diazaspiro[5.5]undecan-9-ylmethyl)-6-methyl-morpholin-4-yl]-1,3-benzothiazole-4-carbonitrile]",7.72
4,"C[C@@H]1CN(c2ccc(C#N)c3ncsc23)C[C@H](CN2CC3(CCCNC3)C2)O1 [Example 4, 7-[(2S,6R)-2-(2,8-diazaspiro[3.5]nonan-2-ylmethyl)-6-methyl-morpholin-4-yl]-1,3-benzothiazole-4-carbonitrile]",7.92
5,"C[C@@H]1CN(c2ccc(C#N)c3ncsc23)C[C@H](CN2CCC3(CCNCC3)CC2)O1 [Example 5, 7-[(2S,6R)-2-(3,9-diazaspiro[5.5]undecan-3-ylmethyl)-6-methyl-morpholin-4-yl]-1,3-benzothiazole-4-carbonitrile]",7.32
6,"C[C@@H]1CN(c2ccc(C#N)c3ncsc23)C[C@H](CN2CCC3(CCNC3)CC2)O1 [Example 6, 7-[(2S,6R)-2-(2,8-diazaspiro[4.5]decan-8-ylmethyl)-6-methyl-morpholin-4-yl]-1,3-benzothiazole-4-carbonitrile]",7.39
7,"C[C@@H]1CN(c2ccc(C#N)c3ncsc23)C[C@H](CN2CCC(N3CCCCC3)CC2)O1 [Example 7, 7-[(2R,6S)-2-methyl-6-[[4-(1-piperidyl)-1-piperidyl]methyl]morpholin-4-yl]-1,3-benzothiazole-4-carbonitrile]",7.89
8,"C[C@@H]1CN(c2ccc(C#N)c3ncsc23)C[C@H](CN2[C@@H]3CC[C@H]2C[C@@H](N)C3)O1 [Example 8, Endo-7-[(2S,6R)-2-[[(1R,5S)-3-amino-8-azabicyclo[3.2.1]octan-8-yl]methyl]-6-methyl-morpholin-4-yl]-1,3-benzothiazole-4-carbonitrile]",7.80
9,"C[C@@H]1CN(c2ccc(C#N)c3ncsc23)C[C@H](CN2[C@@H]3CC[C@H]2C[C@H](N)C3)O1 [Example 9, Exo-7-[(2S,6R)-2-[[(1S,5R)-3-amino-8-azabicyclo[3.2.1]octan-8-yl]methyl]-6-methyl-morpholin-4-yl]-1,3-benzothiazole-4-carbonitrile]",7.35
10,"C[C@@H]1CN(c2ccc(C#N)c3ncsc23)C[C@H](CN2CCC3(CCCN(C)C3)CC2)O1 [Example 10, 7-[(2R,6S)-2-methyl-6-[(2-methyl-2,9-diazaspiro[5.5]undecan-9-yl)methyl]morpholin-4-yl]-1,3-benzothiazole-4-carbonitrile]",7.82
11,"C[C@@H]1CN(c2ccc(C#N)c3ncsc23)C[C@H](C(=O)NC2CCN(C)CC2)O1 [Example 11, (2R,6R)-4-(4-cyano-1,3-benzothiazol-7-yl)-6-methyl-N-(1-methyl-4-piperidyl)morpholine-2-carboxamide]",8.30
12,"C[C@@H]1CN(c2ccc(C#N)c3ncsc23)C[C@H](C(=O)NCC2CN(C)CCO2)O1 (stereo partly drawn) [Example 12, (2R,6R)-4-(4-cyano-1,3-benzothiazol-7-yl)-6-methyl-N-[(4-methylmorpholin-2-yl)methyl]morpholine-2-carboxamide]",8.40
